Measurements taken from ChEMBL document CHEMBL1151337, “New tertiary alkaloids of Strychnos decussata” (J Nat Prod, 1980).

Key:
[1] = Toxicity in ip dosed NMRI mouse assessed as clonic and tonic convulsions; format: organism-based; conditions: in vivo
Mus musculus = assay: Toxicity in ip dosed NMRI mouse assessed as clonic and tonic convulsions assessed as cunvulsive dose; format: organism-based; conditions: in vivo

Row | Compound | LD50 [1] [mg/kg] | Activity (Mus musculus) [mg/kg]
1 | C/C=C(/C=O)[C@H]1C[C@H](OC)n2c3c(c4cc(O)ccc42)CCN(C)[C@H]3C1 | 75 | 75
2 | C/C=C(/C=O)[C@H]1C[C@H](OC)n2c3c(c4ccccc42)CCN(C)[C@H]3C1 | – | 45.3
3 | C/C=C1\[C@@H]2C[C@H]3c4c(c5cc(O)ccc5n4[C@@H](C2)O[C@H]1OC)CCN3C | 84 | 84
4 | C/C=C1\[C@@H]2C[C@H]3c4c(c5cc(O)ccc5n4[C@@H](C2)O[C@@H]1OC)CCN3C | 90 | 80
5 | C/C=C(/C=O)[C@@H]1C[C@H]2c3c(c4ccccc4n3[C@@H](O)C1)CCN2C [AKAGERINE] | – | 50
